Experimental data taken from PMC6792352, “Limited Chemical Structural Diversity Found to Modulate Thyroid Hormone Receptor in the Tox21 Chemical Library” (Environmental Health Perspectives, 2019).
Counter-ions that a name gives are not always drawn.

Assay: in vitro
Conditions: rat, gh3-tre-luc cells

SMILES	CC50 at 24 h (AC50 (uM) modified / 1000)	other results
CC(C)[C@H](C(=O)O[C@H](C#N)c1cccc(Oc2ccccc2)c1)c1ccc(Cl)cc1 [Esfenvalerate]	> 90 µM	
COC(=O)CCc1ccc(OCC(O)CNC(C)C)cc1 (centres unmarked) [Esmolol hydrochloride]	> 50 µM	
CC(=O)SCC(CC(=O)c1ccc(C)cc1)C(=O)O (centres unmarked) [Esonarimod]	> 50 µM	
Clc1ccc2c(c1)C(c1ccccc1)=NCc1nncn1-2 [Estazolam]	> 50 µM	
CC(=O)Oc1ccc2c(c1)CC[C@@H]1[C@@H]2CC[C@]2(C)[C@@H](O)CC[C@@H]12 [Estradiol acetate]	22.3 µM	
C[C@]12CC[C@@H]3c4ccc(OC(=O)c5ccccc5)cc4CC[C@H]3[C@@H]1CC[C@@H]2O [Estradiol benzoate]	> 50 µM	
CCC(=O)Oc1ccc2c(c1)CC[C@@H]1[C@@H]2CC[C@]2(C)[C@@H](OC(=O)CC)CC[C@@H]12 [Estradiol dipropionate]	> 50 µM	
CCCCCCC(=O)O[C@H]1CC[C@H]2[C@@H]3CCc4cc(O)ccc4[C@H]3CC[C@]12C [Estradiol enanthate]	> 50 µM	
C[C@]12CC[C@@H]3c4ccc(O)cc4CC[C@H]3[C@@H]1CC[C@@H]2OP(=O)(O)O [Estradiol phosphate]	> 50 µM	
CCCCC(=O)O[C@H]1CC[C@H]2[C@@H]3CCc4cc(O)ccc4[C@H]3CC[C@]12C [Estradiol valerate]	41.5 µM	
C=CCc1ccc(OC)cc1 [Estragole]	> 90 µM	
C[C@]12CC[C@@H]3c4ccc(OC(=O)N(CCCl)CCCl)cc4CC[C@H]3[C@@H]1CC[C@@H]2O [Estramustine]		CC50 at 24 h (AC50 (uM) modified / 1000, Tox21_110001=Tox21_112207, viability, 1 nM T3 present, 24 h): > 50 µM
C[C@]12CC[C@@H]3c4ccc(O)cc4CC[C@H]3[C@@H]1C[C@@H](O)[C@@H]2O [Estriol]	> 90 µM	
C[C@]12CC[C@@H]3c4ccc(O)cc4CC[C@H]3[C@@H]1CCC2=O [Estrone]	> 50 µM	
C[C@]12CC[C@@H]3c4ccc(OS(=O)(=O)O)cc4CC[C@H]3[C@@H]1CCC2=O [Estropipate]	> 50 µM	
CN1CCN(C(=O)O[C@H]2c3nccnc3C(=O)N2c2ccc(Cl)cn2)CC1 [Eszopiclone]	> 50 µM	
CCC1COC(Cn2cncn2)(c2ccc(Cl)cc2Cl)O1 (centres unmarked) [Etaconazole]		CC50 at 24 h (AC50 (uM) modified / 1000, Tox21_110001=Tox21_301568, viability, 1 nM T3 present, 24 h): > 90 µM
CCN(CC)CCOc1ccccc1C(=O)CCc1ccccc1 [Etafenone]	18.1 µM	
O=C(Cn1ccnc1[N+](=O)[O-])NCCO [Etandazole]	> 50 µM	
CCOC(=O)c1cnc2c(cnn2CC)c1NN=C(C)C [Etazolate hydrochloride]	> 50 µM	
CCC1(c2ccccc2)C(=O)N(COC)C(=O)N(COC)C1=O [Eterobarb]		CC50 at 24 h (AC50 (uM) modified / 1000, Tox21_110001=Tox21_110991, viability, 1 nM T3 present, 24 h): > 50 µM

SMILES	CC50 at 24 h (AC50 (uM) modified / 1000)	other results
CCOc1ccc2nc3cc(N)ccc3c(N)c2c1 [Ethacridine lactate hydrate]	> 50 µM	
C=C(C)CN(CC)c1c([N+](=O)[O-])cc(C(F)(F)F)cc1[N+](=O)[O-] [Ethalfluralin]	> 90 µM	
CC[C@@H](CO)NCCN[C@@H](CC)CO [Ethambutol dihydrochloride]	> 20 µM	
O=C(CS)OCCOC(=O)CS [Ethane-1,2-diyl bis(sulfanylacetate)]	> 90 µM	
CCO [Ethanol]	> 100 µM	
CCOc1ccc(Cc2nccc3cc(OCC)c(OCC)cc23)cc1OCC [Ethaverine hydrochloride]	> 20 µM	
CCN(CC)S(=O)(=O)c1ccc(C(=O)O)cc1 [Ethebenecid]	> 50 µM	
C=C[Si](OCC)(OCC)OCC [Ethenyl(triethoxy)silane]	> 90 µM	
C=C[Si](OC(=C)C)(OC(=C)C)OC(=C)C [Ethenyl[tris(prop-1-en-2-yloxy)]silane]	> 90 µM	
C=C[Si](OC(C)=O)(OC(C)=O)OC(C)=O [Ethenylsilanetriyl triacetate]	> 90 µM	
O=P(O)(O)CCCl [Ethephon]	> 90 µM	
CCC1Nc2cc(Cl)c(S(N)(=O)=O)cc2S(=O)(=O)N1 (centres unmarked) [Ethiazide]	> 50 µM	
CCSCc1ccccc1OC(=O)NC [Ethiofencarb]		CC50 at 24 h (AC50 (uM) modified / 1000, Tox21_110001=Tox21_301356, viability, 1 nM T3 present, 24 h): > 90 µM
CCSC(=O)N(CC)CC [Ethiolate]	> 90 µM	
CCOP(=S)(OCC)SCSP(=S)(OCC)OCC [Ethion]		CC50 at 24 h (AC50 (uM) modified / 1000, Tox21_110001=Tox21_300175, viability, 1 nM T3 present, 24 h): > 90 µM
CCc1cc(C(N)=S)ccn1 [Ethionamide]	> 50 µM	
CCCCc1c(C)nc(NCC)[nH]c1=O [Ethirimol]	> 90 µM	
C#C[C@]1(O)CC[C@H]2[C@@H]3CCC4=CC(=O)CC[C@]4(C)[C@H]3CC[C@@]21C [Ethisterone]	> 90 µM	
CCOC1Oc2ccc(OS(C)(=O)=O)cc2C1(C)C (centres unmarked) [Ethofumesate]	> 90 µM	
CCOC(=O)C1(c2ccccc2)CCCN(C)CC1 (centres unmarked) [Ethoheptazine hydrochloride]		CC50 at 24 h (AC50 (uM) modified / 1000, Tox21_110001=Tox21_113227, viability, 1 nM T3 present, 24 h): > 50 µM
CCCSP(=O)(OCC)SCCC [Ethoprop]	> 90 µM	

SMILES	CC50 at 24 h (AC50 (uM) modified / 1000)	other results
CCN(CC)C(C)CN1c2ccccc2Sc2ccccc21 (centres unmarked) [Ethopropazine hydrochloride]	10.7 µM	
CCC1(C)CC(=O)NC1=O (centres unmarked) [Ethosuximide]	> 50 µM	
CCN1C(=O)NC(c2ccccc2)C1=O (centres unmarked) [Ethotoin]	> 20 µM	
CCOc1ccc(/N=N/c2ccc(N)cc2N)cc1 [Ethoxazene]	> 50 µM	
CCOCC(=O)O [Ethoxyacetic acid]	> 90 µM	
CCOc1ccc2nc(S(N)(=O)=O)sc2c1 [Ethoxzolamide]	> 50 µM	
CCOC(=O)Cc1cccc2ccccc12 [Ethyl 1-naphthaleneacetate]	> 90 µM	
CCOC(=O)CC1(C)OCC(C)O1 (centres unmarked) [Ethyl 2,4-dimethyl-1,3-dioxolane-2-acetate]	> 90 µM	
CCOC(=O)CC(=O)c1cc(F)c(Cl)nc1Cl [Ethyl 2,6-dichloro-5-fluoro-?-oxo-3-pyridinepropionate]	> 90 µM	
CCOC(=O)C(Cl)C(C)=O (centres unmarked) [Ethyl 2-chloroacetoacetate]		CC50 at 24 h (AC50 (uM) modified / 1000, Tox21_110001=Tox21_202936, viability, 1 nM T3 present, 24 h): > 90 µM
CCOC(=O)C(C#N)=C(c1ccccc1)c1ccccc1 [Ethyl 2-cyano-3,3-diphenylacrylate]	> 90 µM	
CCOC(=O)c1ccccc1OC [Ethyl 2-methoxybenzoate]	> 90 µM	
CCOC(=O)c1ccccc1C [Ethyl 2-methylbenzoate]	> 90 µM	
CCCC(C)C(=O)OCC (centres unmarked) [Ethyl 2-methylpentanoate]	> 90 µM	
CCCCN(CCC(=O)OCC)C(C)=O [Ethyl 3-(N-butylacetamido)propionate]	> 90 µM	
CCOC(=O)CC(C(C)=O)C(C)=O [Ethyl 3-acetyl-4-oxopentanoate]	> 90 µM	
CCOC(=O)c1cccc(N)c1 [Ethyl 3-aminobenzoate methanesulfonic acid salt]	> 50 µM	
CCOC(=N)CC(=O)OCC [Ethyl 3-ethoxy-3-iminopropionate hydrochloride]	> 90 µM	
CCOCCC(=O)OCC [Ethyl 3-ethoxypropionate]	> 100 µM	
CCOC(=O)C1OC1c1ccccc1 (centres unmarked) [Ethyl 3-phenylglycidate]	> 90 µM	
CCOC(=O)CC(=O)CCl [Ethyl 4-chloro-3-oxobutanoate]		CC50 at 24 h (AC50 (uM) modified / 1000, Tox21_110001=Tox21_302063, viability, 1 nM T3 present, 24 h): 76.9 µM

SMILES	CC50 at 24 h (AC50 (uM) modified / 1000)	other results
CCC(=O)c1ccc(Cl)cc1 [Ethyl 4-chlorophenyl ketone]		CC50 at 24 h (AC50 (uM) modified / 1000, Tox21_110001=Tox21_303381, viability, 1 nM T3 present, 24 h): > 90 µM
CCOC(=O)c1ccc(I)cc1 [Ethyl 4-iodobenzoate]	> 90 µM	
CCOC(=O)c1ccc(C)cc1 [Ethyl 4-methylbenzoate]	> 90 µM	
CCOC(=O)C1=NN(c2ccccc2)C(=O)C1 [Ethyl 5-oxo-1-phenyl-4,5-dihydro-1H-pyrazole-3-carboxylate]	> 90 µM	
CCCCC/C=C\C=C\C(=O)OCC [Ethyl (2E,4Z)-deca-2,4-dienoate]	29.3 µM	
CCOC(=O)[C@@H](N)CS [Ethyl L-cysteinate hydrochloride]	> 50 µM	
CCOC(C)(C)C [Ethyl T-butyl ether]	> 90 µM	
CCOC(=O)NCCC[Si](OCC)(OCC)OCC [Ethyl [3-(triethoxysilyl)propyl]carbamate]	> 90 µM	
CCOC(C)=O [Ethyl acetate]	> 90 µM	
CCOC(=O)CC(C)=O [Ethyl acetoacetate]	> 90 µM	
C=CC(=O)OCC [Ethyl acrylate]	> 90 µM	
CCOC(=O)c1ccccc1N [Ethyl anthranilate]		CC50 at 24 h (AC50 (uM) modified / 1000, Tox21_110001=Tox21_202019, viability, 1 nM T3 present, 24 h): > 90 µM
CCOC(=O)c1ccccc1 [Ethyl benzoate]	> 90 µM	
CCOC(=O)CC(=O)c1ccccc1 [Ethyl benzoylacetate]	> 90 µM	
CCOC(=O)CBr [Ethyl bromoacetate]		CC50 at 24 h (AC50 (uM) modified / 1000, Tox21_110001=Tox21_200152, viability, 1 nM T3 present, 24 h): > 90 µM
CCOC(=O)C(Br)c1ccccc1 (centres unmarked) [Ethyl bromophenylacetate]	> 90 µM	
CCCC(=O)OCC [Ethyl butyrate]	> 90 µM	
CCOC(=O)CCl [Ethyl chloroacetate]		CC50 at 24 h (AC50 (uM) modified / 1000, Tox21_110001=Tox21_201053, viability, 1 nM T3 present, 24 h): > 90 µM
CCOC(=O)/C=C/c1ccccc1 [Ethyl cinnamate]	> 90 µM	
CCOC(=O)CC#N [Ethyl cyanoacetate]	> 90 µM	
